The nature of the series: Human HepG2 cell viability assay in 384 well format. Type of series: toxicity, cell-based. The arrangement: dose 125 nL, time 70.5 hour; cytotoxicity at 70.5 h: concentration not given beside the values. The conditions noted are these: HepG2 cells, read-out: Inhibition.

The record followed here is ChEMBL document CHEMBL3507680, “University of Dundee, Gates Library screen for HepG2 cell viability”.

For `CC(=O)NCCNC(=O)CN1CCN(Cc2nccn2C)C(C)C1` (stereo not given), the cytotoxicity at 70.5 h is -2.6%.

With `CCc1nc(CN(C)CC(c2cccs2)N2CCOCC2)no1` (stereo not given), the cytotoxicity at 70.5 h came out at 18.8%.

Turning to `N#Cc1ccnc(N2CCN(C(=O)NC3CCS(=O)(=O)C3)CC2)c1` (stereo not given), the cytotoxicity at 70.5 h was -7.36%.

In the case of `Cc1nc(C)c(C(=O)NCCNC(=O)c2ccc(F)cc2F)s1`, the cytotoxicity at 70.5 h was -6.45%.

In the case of `CCS(=O)(=O)c1ccccc1N1CCC(NC(C)=O)CC1`, the cytotoxicity at 70.5 h was -4.79%.

On to `CC(C)c1nc2c(n1C)CCN(Cc1nc(-c3ccsc3)no1)C2`, for which the cytotoxicity at 70.5 h is -9.76%.

In the case of `CC(C)Cc1noc(CN2CCCC(Cn3cncn3)C2)n1` (stereo not given), the cytotoxicity at 70.5 h was 3.45%.

With `CC(C)Cc1noc(CN2CCOC(Cn3cncn3)C2)n1` (stereo not given), the cytotoxicity at 70.5 h was -5.1%.

On to `O=C(CCCNC(=O)C1CC1)Nc1cnn(-c2ccccc2Cl)c1`, for which the cytotoxicity at 70.5 h was -1.38%.

As for `Cn1cnc2c1CCN(Cc1nc(-c3ccsc3)no1)C2`, the cytotoxicity at 70.5 h came out at 32.4%.

For the compound `Cc1nc(C2CCCN2CC(=O)N(Cc2ccsc2)C2CC2)no1` (stereo not given), the cytotoxicity at 70.5 h is -5.17%.

Turning to `O=C(c1nc(=O)[nH][nH]1)N1CCCC(c2cc(C(F)(F)F)[nH]n2)C1` (stereo not given), the cytotoxicity at 70.5 h was 34.5%.

On to `Cc1ccc(C(=O)NS(=O)(=O)c2ccccc2C)c(=O)[nH]1`, for which the cytotoxicity at 70.5 h is -4.91%.

For the compound `Cc1cc(C)cc(OCCC(=O)N2CCOCC2c2ncon2)c1` (stereo not given), the cytotoxicity at 70.5 h amounted to 5.7%.

As to `Cc1cc(CN2CCOC(CN(C)C)C2)no1` (stereo not given), the cytotoxicity at 70.5 h is 9.18%.

Regarding `CCc1nc(CC(=O)N2CCOCC2c2ncon2)cs1` (stereo not given), the cytotoxicity at 70.5 h is -3.4%.

Take `Fc1ccc(CN2CCCC2Cn2cccn2)c2ncccc12` (stereo not given): the cytotoxicity at 70.5 h was -10.6%.

With `Cc1ccc(-c2noc(CN3CCOC(CN(C)C)C3)n2)cc1F` (stereo not given), the cytotoxicity at 70.5 h is -0.0729%.

For `CN(CC1CCCO1)C1CCN(CCc2ccccn2)CC1` (stereo not given), the cytotoxicity at 70.5 h is -6.95%.

Consider `CC1CN(CC(=O)Nc2nncs2)CCN1c1nccs1` (stereo not given), for which the cytotoxicity at 70.5 h was -9.27%.

Take `c1ccc(CCCN2CC(n3cccn3)C2)cc1`: the cytotoxicity at 70.5 h was -2.22%.

As to `Cc1nn(C)c(C)c1C1CCCN1Cc1nc(-c2ccco2)oc1C` (stereo not given), the cytotoxicity at 70.5 h is -2.24%.

As to `Cc1cc(C)cc(C2(C(=O)N3CCCC(n4cncn4)C3)CC2)c1` (stereo not given), the cytotoxicity at 70.5 h was -17.8%.

Regarding `Cc1nc(CN(C)C2CCN(CC(=O)N3CCOCC3)C2)no1` (stereo not given), the cytotoxicity at 70.5 h was -12.6%.

With `Cc1nn(C)c(C)c1C1CCCN1Cc1nc(-c2ccco2)no1` (stereo not given), the cytotoxicity at 70.5 h was -19.8%.

`Cc1cnn(CC2CCCN2CCCc2nc3ccccc3o2)c1` (stereo not given): the cytotoxicity at 70.5 h was -16.1%.

`O=C(NCc1ccccn1)NC1CCOc2ccccc21` (stereo not given): the cytotoxicity at 70.5 h was 20.6%.

In the case of `O=C(NCc1ccco1)C1CCCN1Cc1nc(-c2ccco2)no1` (stereo not given), the cytotoxicity at 70.5 h is -15.9%.

Consider `CC(C)c1noc(CN2CCN(C(=O)c3ccccc3F)CC2)n1`, for which the cytotoxicity at 70.5 h is -18.6%.

`CC(C)c1ccc(O)c(C(=O)N2CCN(Cc3cscn3)CC2)c1`: the cytotoxicity at 70.5 h was -15.1%.

Turning to `Cc1c[nH]cc1C(=O)N1CCN(Cc2nc(C(C)C)no2)CC1`, the cytotoxicity at 70.5 h was -15.1%.

For the compound `Cc1cc(C)cc(NC(=O)CN2CCCC(n3cncn3)C2)c1` (stereo not given), the cytotoxicity at 70.5 h is -3.52%.

For `Cc1nnc2n1CCN(Cc1csc(CC(=O)N(C)C)n1)C2`, the cytotoxicity at 70.5 h was -13.5%.

As to `Cc1nnc2n1CCN(Cc1csc(Cc3ccccc3)n1)C2`, the cytotoxicity at 70.5 h was -34.1%.

Consider `N#Cc1ccc(N2CCN(C(=O)c3cc(C4CC4)[nH]n3)CC2)c(F)c1`, for which the cytotoxicity at 70.5 h was -8.69%.

Regarding `Cc1ccc(-n2nnc(C(=O)Nc3cc(C)nn3C)c2C2CC2)cc1`, the cytotoxicity at 70.5 h came to 0.219%.

With `Cc1c(C(=O)N2CCCC2c2cnn(C)c2)nnn1-c1ccccc1` (stereo not given), the cytotoxicity at 70.5 h was -7.15%.

Consider `Cc1ccc(-n2nnc(C(=O)NS(C)(=O)=O)c2C2CC2)cc1`, for which the cytotoxicity at 70.5 h is -9%.

As for `COc1ncccc1CNC(=O)NC1CCOc2ccccc21` (stereo not given), the cytotoxicity at 70.5 h is -13.3%.

In the case of `COc1cc(CNCC(O)c2ccc(C)cc2)cc2c1OCCO2` (stereo not given), the cytotoxicity at 70.5 h stood at 4.82%.
